Some results are limits rather than exact numbers.

Data on five molecules can be found in patent US9493506B2 (Enanta Pharmaceuticals, Inc., priority 2010, dated 2016).

Data set [1] relates to HCV replicon with a D168E mutation in a 1a-H77 background. Nature of the data set: transient replicon assay, D168E mutation in 1a-H77 background. The class given is cell-based, hepatitis C virus (genotype 1a-H77). The conditions noted are these: Hepatitis C virus, read-out: EC50 in a transient replicon assay with a D168E mutation in a 1a-H77 background. In a few lines: (§1)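 Transient transfection of mutant replicon RNA (1a-H77 with NS2–NS5B, or 1b-N with NS3–NS5B plus E1202G/S2204I) by electroporation into IFN-cured Huh7 cells, plated at 7.5×10^3 cells per well in DMEM with 5% FBS. Serial compound dilutions added 4 h post-transfection (0.5% DMSO final).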

Data set [2] has as its system HCV replicon with a R155K mutation in a 1a-H77 background. Nature of the data set: transient replicon assay, R155K mutation in 1a-H77 background. The class given is cell-based, hepatitis C virus (genotype 1a-H77). The conditions noted are these: Hepatitis C virus, read-out: EC50 in a transient replicon assay with a R155K mutation in a 1a-H77 background. In a few lines:
as §1

Data set [3] deals with HCV replicon with a D168V mutation in a 1a-H77 background. Nature of the data set: transient replicon assay, D168V mutation in 1a-H77 background. The class given is cell-based, hepatitis C virus (genotype 1a-H77). As to conditions: Hepatitis C virus, read-out: EC50 in a transient replicon assay with a D168V mutation in a 1a-H77 background. The gist of the method:
as §1

A further data set is described as follows: dog PK experiment. As to conditions: in vivo; for bioavailability: dog PK experiment, 3 mg/kg, read-out: F value (bioavailability); for AUC: dog, dosed at 3 mg/kg. The text has this: Those of ordinary skill in the art are aware of the biological assays utililized to test the compounds of the invention. Regarding bioavailability data (F values), a more thorough explanation can be found in Rowland, M and Tozer, T Clinical Pharmacokinetics: Concepts and Applications Lippincott, Williams & Wilkins 3rd ed. 1995, (specifically covered on page 43).

Regarding `Cc1cc(C(=O)N[C@H]2CCCCC/C=C\[C@@H]3C[C@@]3(C(=O)NS(=O)(=O)C3CC3)NC(=O)[C@@H]3C[C@@H](Oc4nc5cc(F)ccc5nc4C)CN3C2=O)no1` [Example 22, N-((2R,6S,13aS,14aR,16aS,Z)-14a-(cyclopropylsulfonylcarbamoyl)-2-(7-fluoro-3-methylquinoxalin-2-yloxy)-5,16-dioxo-1,2,3,5,6,7,8,9,10,11,13a,14,14a,15,16,16a-hexadecahydrocyclopropa[e]pyrrolo[1,2-a][1,4]diazacyclopentadecin-6-yl)-5-methylisoxazole-3-carboxamide], the EC50 is 3 to 20 nM in data set [1], 1 to 10 nM in data set [2] and 25 to 50 nM in data set [3]. The bioavailability in “dog PK experiment” is more than 100%. For the same molecule, the AUC in “dog PK experiment” came out at 54000 ng·h/mL.
In the case of `Cc1onc(C(=O)N[C@H]2CCCCC/C=C\[C@@H]3C[C@@]3(C(=O)NS(=O)(=O)C3CC3)NC(=O)[C@@H]3C[C@@H](Oc4nc5ccccc5nc4C(F)(F)F)CN3C2=O)c1C` [Example 16, N-((2R,6S,13aS,14aR,16aS,Z)-14a-(cyclopropylsulfonylcarbamoyl)-5,16-dioxo-2-(3-(trifluoromethyl)quinoxalin-2-yloxy)-1,2,3,5,6,7,8,9,10,11,13a,14,14a,15,16,16-hexadecahydrocyclopropa[e]pyrrolo[1,2-a][1,4]diazacyclopentadecin-6-yl)-4,5-dimethylisoxazole-3-carboxamide], the EC50 is less than 3 nM in data set [1], less than 1 nM in data set [2] and less than 25 nM in data set [3]. The bioavailability in the data set “dog PK experiment” was found to be 66%. In “dog PK experiment”, this molecule had an AUC of 2100 ng·h/mL.
On the same counts, the results for `Cc1cc(C(=O)N[C@H]2CCCCC/C=C\[C@@H]3C[C@@]3(C(=O)NS(=O)(=O)C3CC3)NC(=O)[C@@H]3C[C@@H](Oc4nc5cc(F)ccc5nc4C(C)(F)F)CN3C2=O)no1` [Example 117, N-((2R,6S,13aS,14aR,16aS,Z)-14a-(cyclopropylsulfonylcarbamoyl)-2-(3-(1,1-difluoroethyl)-7-fluoroquinoxalin-2-yloxy)-5,16-dioxo-1,2,3,5,6,7,8,9,10,11,13a,14,14a,15,16,16a-hexadecahydrocyclopropa[e]pyrrolo[1,2-a][1,4]diazacyclopentadecin-6-yl)-5-methylisoxazole-3-carboxamide] are less than 3 nM, less than 1 nM, less than 25 nM, 63% and 63000 ng·h/mL.
With `Cc1cc(C(=O)N[C@H]2CCCCC/C=C\[C@@H]3C[C@@]3(C(=O)NS(=O)(=O)C3(C)CC3)NC(=O)[C@@H]3C[C@@H](Oc4nc5cc(F)cc(Br)c5nc4C)CN3C2=O)no1` [Example 101, N-((2R,6S,13aS,14aR,16aS,Z)-2-(5-bromo-7-fluoro-3-methylquinoxalin-2-yloxy)-14a-(1-methylcyclopropylsulfonylcarbamoyl)-5,16-dioxo-1,2,3,5,6,7,8,9,10,11,13a,14,14a,15,16,16a-hexadecahydrocyclopropa[e]pyrrolo[1,2-a][1,4]diazacyclopentadecin-6-yl)-5-methylisoxazole-3-carboxamide], the figures for the EC50 in data set [1], in data set [2] and in data set [3] were 3 to 20 nM, less than 1 nM and less than 25 nM, respectively. For the same molecule, the bioavailability in “dog PK experiment” is more than 100%. The molecule also showed an AUC in “dog PK experiment” of 84000 ng·h/mL.
As to `O=C(N[C@H]1CCCCC/C=C\[C@@H]2C[C@@]2(C(=O)NS(=O)(=O)C2CC2)NC(=O)[C@@H]2C[C@@H](Oc3nc4ccccc4nc3C(F)(F)F)CN2C1=O)c1ccon1` [Example 15, N-((2R,6S,13aS,14aR,16aS,Z)-14a-(cyclopropylsulfonylcarbamoyl)-5,16-dioxo-2-(3-(trifluoromethyl)quinoxalin-2-yloxy)-1,2,3,5,6,7,8,9,10,11,13a,14,14a,15,16,16a-hexadecahydrocyclopropa[e]pyrrolo[1,2-a][1,4]diazacyclopentadecin-6-yl)isoxazole-3-carboxamide], in “dog PK experiment”, the bioavailability was more than 100% and the AUC worked out at 3300 ng·h/mL.
